Measured values reported in patent EP4722207A1, “OXOISOINDOLINYL-SUBSTITUTED TETRAHYDROPYRIMIDINEDIONE DERIVATIVE AND USE THEREOF” (Gluetacs Therapeutics (Shanghai) Co., Ltd., priority 2023, dated 2024).

Legend:
Assay type in all cases: cell-based
Conditions in all cases: 24 hours of compound treatment, 50 nM and 500 nM
IKZF3 = target: T1, IKZF3 (Homo sapiens, UniProt Q96SW2+Q9UKT9); assay: Western-blot assay, substrate protein degradation in hPBMCs: IKZF3
T1 construct: effects of the compounds of the present disclosure on the expression of target proteins in cells; endogenous in cells; host or cells: human PBMCs (hPBMCs)

GSPT1 = target: T2, GSPT1 (Homo sapiens, UniProt P15170+Q96SW2); assay: Western-blot assay, substrate protein degradation in hPBMCs: GSPT1
T2 construct: effects of the compounds of the present disclosure on the expression of target proteins in cells; endogenous in cells; host or cells: human PBMCs (hPBMCs)

IKZF2 = target: T3, IKZF2 (Homo sapiens, UniProt Q96SW2+Q9UKS7); assay: Western-blot assay, substrate protein degradation in hPBMCs: IKZF2
T3 construct: effects of the compounds of the present disclosure on the expression of target proteins in cells; endogenous in cells; host or cells: human PBMCs (hPBMCs)

WEE1 = target: T4, WEE1 (Homo sapiens, UniProt P30291+Q96SW2); assay: Western-blot assay, substrate protein degradation in hPBMCs: WEE1
T4 construct: effects of the compounds of the present disclosure on the expression of target proteins in cells; endogenous in cells; host or cells: human PBMCs (hPBMCs)

IKZF1 = target: T5, IKZF1 (Homo sapiens, UniProt Q13422+Q96SW2); assay: Western-blot assay, substrate protein degradation in hPBMCs: IKZF1
T5 construct: effects of the compounds of the present disclosure on the expression of target proteins in cells; endogenous in cells; host or cells: human PBMCs (hPBMCs)

CK1α = target: T6, CK1α (Homo sapiens, UniProt P48729+Q96SW2); assay: Western-blot assay, substrate protein degradation in hPBMCs: CK1α
T6 construct: effects of the compounds of the present disclosure on the expression of target proteins in cells; endogenous in cells; host or cells: human PBMCs (hPBMCs)
T6 sequence (P48729 whole entry): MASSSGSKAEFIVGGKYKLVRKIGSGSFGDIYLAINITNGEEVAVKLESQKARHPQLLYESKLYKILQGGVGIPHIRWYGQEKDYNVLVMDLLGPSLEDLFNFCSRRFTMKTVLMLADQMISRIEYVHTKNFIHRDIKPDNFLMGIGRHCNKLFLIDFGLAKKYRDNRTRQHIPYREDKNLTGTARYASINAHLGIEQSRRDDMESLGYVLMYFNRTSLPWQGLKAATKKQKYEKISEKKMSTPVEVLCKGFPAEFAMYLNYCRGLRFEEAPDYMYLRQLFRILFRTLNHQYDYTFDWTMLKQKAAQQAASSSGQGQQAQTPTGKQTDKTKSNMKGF
T6 sequence (Q96SW2 whole entry): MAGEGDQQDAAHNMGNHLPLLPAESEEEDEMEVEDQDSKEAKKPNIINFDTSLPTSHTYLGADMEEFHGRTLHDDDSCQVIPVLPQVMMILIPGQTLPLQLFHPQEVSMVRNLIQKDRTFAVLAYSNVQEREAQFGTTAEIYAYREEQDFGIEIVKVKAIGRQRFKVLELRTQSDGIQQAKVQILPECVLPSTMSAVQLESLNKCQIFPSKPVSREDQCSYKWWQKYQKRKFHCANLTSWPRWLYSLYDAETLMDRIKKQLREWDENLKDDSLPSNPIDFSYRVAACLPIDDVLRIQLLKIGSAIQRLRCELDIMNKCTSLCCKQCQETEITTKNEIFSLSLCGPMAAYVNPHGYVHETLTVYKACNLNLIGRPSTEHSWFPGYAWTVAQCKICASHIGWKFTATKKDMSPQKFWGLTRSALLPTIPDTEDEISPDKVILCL
T6 sequence (Q16531 whole entry partner): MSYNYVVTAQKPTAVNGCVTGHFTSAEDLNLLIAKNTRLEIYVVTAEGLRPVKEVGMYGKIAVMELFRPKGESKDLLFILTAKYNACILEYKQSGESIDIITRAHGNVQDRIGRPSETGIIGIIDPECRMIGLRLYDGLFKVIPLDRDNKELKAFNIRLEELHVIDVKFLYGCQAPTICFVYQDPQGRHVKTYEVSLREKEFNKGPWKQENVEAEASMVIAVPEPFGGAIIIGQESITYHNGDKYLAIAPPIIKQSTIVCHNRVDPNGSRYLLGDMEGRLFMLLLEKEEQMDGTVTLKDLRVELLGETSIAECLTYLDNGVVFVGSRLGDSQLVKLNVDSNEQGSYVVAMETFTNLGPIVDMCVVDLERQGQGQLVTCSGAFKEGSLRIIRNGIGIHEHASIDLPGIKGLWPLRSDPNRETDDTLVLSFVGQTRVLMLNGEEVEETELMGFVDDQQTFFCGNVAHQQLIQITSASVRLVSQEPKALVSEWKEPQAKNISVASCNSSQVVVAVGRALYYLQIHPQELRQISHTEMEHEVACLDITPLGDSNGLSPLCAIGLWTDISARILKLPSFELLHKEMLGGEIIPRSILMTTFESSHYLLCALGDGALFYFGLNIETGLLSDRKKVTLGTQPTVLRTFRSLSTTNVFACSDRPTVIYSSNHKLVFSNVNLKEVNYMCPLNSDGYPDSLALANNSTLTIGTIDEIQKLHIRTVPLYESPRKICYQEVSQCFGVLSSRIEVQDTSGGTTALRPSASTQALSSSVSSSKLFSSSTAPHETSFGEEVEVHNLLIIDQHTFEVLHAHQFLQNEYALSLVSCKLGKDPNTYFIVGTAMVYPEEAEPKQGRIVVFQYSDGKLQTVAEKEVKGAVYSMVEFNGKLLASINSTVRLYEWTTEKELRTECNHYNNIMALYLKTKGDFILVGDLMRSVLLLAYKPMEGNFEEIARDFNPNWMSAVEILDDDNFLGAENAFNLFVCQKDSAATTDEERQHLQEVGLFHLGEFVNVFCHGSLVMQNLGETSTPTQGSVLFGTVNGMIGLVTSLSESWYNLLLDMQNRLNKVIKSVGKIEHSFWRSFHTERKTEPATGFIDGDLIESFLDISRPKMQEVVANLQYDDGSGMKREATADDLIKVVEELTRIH

T5 sequence (Q13422 whole entry): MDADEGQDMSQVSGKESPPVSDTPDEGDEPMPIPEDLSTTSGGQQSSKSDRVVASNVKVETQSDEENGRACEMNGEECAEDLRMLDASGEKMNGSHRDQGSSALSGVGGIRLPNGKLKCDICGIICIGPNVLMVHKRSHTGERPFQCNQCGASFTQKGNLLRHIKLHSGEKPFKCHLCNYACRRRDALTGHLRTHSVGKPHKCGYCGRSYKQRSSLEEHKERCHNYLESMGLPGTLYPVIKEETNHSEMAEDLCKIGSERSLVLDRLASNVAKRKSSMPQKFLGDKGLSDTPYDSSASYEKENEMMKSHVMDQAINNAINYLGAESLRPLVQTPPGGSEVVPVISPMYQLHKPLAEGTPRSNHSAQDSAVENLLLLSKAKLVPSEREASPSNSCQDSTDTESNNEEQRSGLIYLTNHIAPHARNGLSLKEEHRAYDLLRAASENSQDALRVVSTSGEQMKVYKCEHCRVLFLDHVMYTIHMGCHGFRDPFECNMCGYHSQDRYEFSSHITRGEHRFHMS
T5 sequence (Q96SW2 whole entry): as the sequence (Q96SW2 whole entry) above
T5 sequence (Q16531 whole entry partner): as the sequence (Q16531 whole entry partner) above
T2 sequence (P15170 whole entry): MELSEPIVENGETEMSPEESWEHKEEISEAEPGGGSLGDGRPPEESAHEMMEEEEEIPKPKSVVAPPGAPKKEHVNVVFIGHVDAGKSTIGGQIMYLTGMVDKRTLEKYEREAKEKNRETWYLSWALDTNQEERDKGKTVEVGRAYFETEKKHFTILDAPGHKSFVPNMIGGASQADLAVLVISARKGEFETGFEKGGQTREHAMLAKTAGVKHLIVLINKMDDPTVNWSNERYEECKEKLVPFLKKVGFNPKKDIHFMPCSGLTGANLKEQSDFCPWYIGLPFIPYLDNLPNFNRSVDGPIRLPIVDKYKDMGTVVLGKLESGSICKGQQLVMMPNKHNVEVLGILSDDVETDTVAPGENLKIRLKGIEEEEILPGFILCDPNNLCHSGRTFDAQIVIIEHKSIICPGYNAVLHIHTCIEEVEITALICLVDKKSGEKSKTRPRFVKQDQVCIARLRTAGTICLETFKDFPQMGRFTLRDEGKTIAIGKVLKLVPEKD
T2 sequence (Q96SW2 whole entry): as the sequence (Q96SW2 whole entry) above
T2 sequence (Q16531 whole entry partner): as the sequence (Q16531 whole entry partner) above
T1 sequence (Q9UKT9 whole entry): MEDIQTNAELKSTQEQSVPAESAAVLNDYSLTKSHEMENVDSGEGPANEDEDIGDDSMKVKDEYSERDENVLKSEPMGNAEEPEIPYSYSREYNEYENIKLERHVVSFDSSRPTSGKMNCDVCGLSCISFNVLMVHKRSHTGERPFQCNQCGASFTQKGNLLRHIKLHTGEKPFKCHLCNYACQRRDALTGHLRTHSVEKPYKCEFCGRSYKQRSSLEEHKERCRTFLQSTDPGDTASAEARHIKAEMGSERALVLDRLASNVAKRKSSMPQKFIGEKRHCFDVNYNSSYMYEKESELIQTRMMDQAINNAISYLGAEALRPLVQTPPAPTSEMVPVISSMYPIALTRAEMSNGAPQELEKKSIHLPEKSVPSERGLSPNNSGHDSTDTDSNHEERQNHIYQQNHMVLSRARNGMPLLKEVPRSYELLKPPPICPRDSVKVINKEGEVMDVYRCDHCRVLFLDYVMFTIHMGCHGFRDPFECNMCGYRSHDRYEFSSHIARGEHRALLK
T1 sequence (Q96SW2 whole entry): as the sequence (Q96SW2 whole entry) above
T1 sequence (Q16531 whole entry partner): as the sequence (Q16531 whole entry partner) above
T4 sequence (P30291 whole entry): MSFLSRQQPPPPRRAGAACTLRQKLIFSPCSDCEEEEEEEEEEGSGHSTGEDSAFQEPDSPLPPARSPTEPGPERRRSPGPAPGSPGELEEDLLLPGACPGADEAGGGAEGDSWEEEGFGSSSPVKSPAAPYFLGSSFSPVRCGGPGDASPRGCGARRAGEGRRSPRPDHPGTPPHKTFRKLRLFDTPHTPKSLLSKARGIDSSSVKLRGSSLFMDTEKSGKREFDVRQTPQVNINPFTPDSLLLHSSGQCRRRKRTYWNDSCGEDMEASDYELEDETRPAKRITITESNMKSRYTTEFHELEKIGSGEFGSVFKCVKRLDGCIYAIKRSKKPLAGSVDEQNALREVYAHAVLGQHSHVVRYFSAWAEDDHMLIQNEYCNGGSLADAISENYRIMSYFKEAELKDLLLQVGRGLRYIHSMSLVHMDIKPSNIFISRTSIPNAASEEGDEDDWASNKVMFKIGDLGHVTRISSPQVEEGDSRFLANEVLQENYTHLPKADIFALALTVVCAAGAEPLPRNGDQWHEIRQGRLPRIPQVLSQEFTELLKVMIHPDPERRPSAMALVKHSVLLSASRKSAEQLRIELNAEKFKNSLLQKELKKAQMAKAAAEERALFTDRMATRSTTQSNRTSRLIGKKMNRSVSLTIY
T4 sequence (Q96SW2 whole entry): as the sequence (Q96SW2 whole entry) above
T4 sequence (Q16531 whole entry partner): as the sequence (Q16531 whole entry partner) above

SMILES | substrate protein remaining % IKZF3 (IKZF3) | substrate protein remaining % GSPT1 (GSPT1) | substrate protein remaining % IKZF2 (IKZF2) | substrate protein remaining % WEE1 (WEE1) | substrate protein remaining % IKZF1 (IKZF1) | substrate protein remaining % CK1α (CK1α)
O=C1CCN(N2C(=O)c3ccc(CN4C5CC4CN(C(=O)C4=C(c6ccc(F)cc6)CCCC4)C5)cc3C2=O)C(=O)N1 [GT-07377, 2-(2,4-dioxotetrahydropyrimidin-1(2H)-yl)-5-((3-(4'-fluoro-3,4,5,6-tetrahydro-[1,1'-biphenyl]-2-carbonyl)-3,6-diazabicyclo[3.1.1]heptan-6-yl)methyl)isoindoline-1,3-dione] | B (80%< substrate protein remaining %≤ 100%) | A (0% ≤ substrate protein remaining % ≤ 80%) | A (0% ≤ substrate protein remaining % ≤ 80%) | A (0% ≤ substrate protein remaining % ≤ 80%) | B (80%< substrate protein remaining %≤ 100%) | A (0% ≤ substrate protein remaining % ≤ 80%)
O=C1CCN(N2C(=O)c3ccc(CN4CCC(c5ccsc5)CC4)cc3C2=O)C(=O)N1 [GT-07420, 2-(2,4-dioxotetrahydropyrimidin-1(2H)-yl)-5-((4-(thiophen-3-yl)piperidin-1-yl)methyl)isoindoline-1,3-dione] | B (80%< substrate protein remaining %≤ 100%) | A (0% ≤ substrate protein remaining % ≤ 80%) | B (80%< substrate protein remaining %≤ 100%) | B (80%< substrate protein remaining %≤ 100%) | B (80%< substrate protein remaining %≤ 100%) | A (0% ≤ substrate protein remaining % ≤ 80%)
Cc1cc(C2CCN(Cc3ccc4c(c3)C(=O)N(N3CCC(=O)NC3=O)C4=O)CC2)cs1 [GT-07421, 2-(2,4-dioxotetrahydropyrimidin-1(2H)-yl)-5-((4-(5-methylthiophen-3-yl)piperidin-1-yl)methyl)isoindoline-1,3-dione] | B (80%< substrate protein remaining %≤ 100%) | A (0% ≤ substrate protein remaining % ≤ 80%) | B (80%< substrate protein remaining %≤ 100%) | B (80%< substrate protein remaining %≤ 100%) | B (80%< substrate protein remaining %≤ 100%) | A (0% ≤ substrate protein remaining % ≤ 80%)
O=C1CCN(N2C(=O)c3ccc(CN4CCC(c5ccoc5)CC4)cc3C2=O)C(=O)N1 [GT-07422, 2-(2,4-dioxotetrahydropyrimidin-1(2H)-yl)-5-((4-(furan-3-yl)piperidin-1-yl)methyl)isoindoline-1,3-dione] | B (80%< substrate protein remaining %≤ 100%) | A (0% ≤ substrate protein remaining % ≤ 80%) | B (80%< substrate protein remaining %≤ 100%) | B (80%< substrate protein remaining %≤ 100%) | B (80%< substrate protein remaining %≤ 100%) | A (0% ≤ substrate protein remaining % ≤ 80%)
Cc1cc(C2=CCN(Cc3ccc4c(c3)C(=O)N(N3CCC(=O)NC3=O)C4=O)CC2)cs1 [GT-07423, 2-(2,4-dioxotetrahydropyrimidin-1(2H)-yl)-5-((4-(5-methylthiophen-3-yl)-3,6-dihydropyridin-1(2H)-yl)methyl)isoindoline-1,3-dione] | A (0% ≤ substrate protein remaining % ≤ 80%) | A (0% ≤ substrate protein remaining % ≤ 80%) | B (80%< substrate protein remaining %≤ 100%) | A (0% ≤ substrate protein remaining % ≤ 80%) | B (80%< substrate protein remaining %≤ 100%) | A (0% ≤ substrate protein remaining % ≤ 80%)
O=C1CCN(N2C(=O)c3ccc(CN4CCC(c5cccs5)CC4)cc3C2=O)C(=O)N1 [GT-07424, 2-(2,4-dioxotetrahydropyrimidin-1(2H)-yl)-5-((4-(thiophen-2-yl)piperidin-1-yl)methyl)isoindoline-1,3-dione] | A (0% ≤ substrate protein remaining % ≤ 80%) | A (0% ≤ substrate protein remaining % ≤ 80%) | B (80%< substrate protein remaining %≤ 100%) | A (0% ≤ substrate protein remaining % ≤ 80%) | A (0% ≤ substrate protein remaining % ≤ 80%) | B (80%< substrate protein remaining %≤ 100%)
O=C1CCN(N2Cc3cc(CN4C[C@H]5C[C@@H]4CN5c4cccc(Cl)c4Cl)ccc3C2=O)C(=O)N1 [GT-07427, 1-(5-(((1R,4R)-5-(2,3-dichlorophenyl)-2,5-diazabicyclo[2.2.1]heptan-2-yl)methyl)-1-oxoisoindolin-2-yl)dihydropyrimidine-2,4(1H,3H)-dione] | B (80%< substrate protein remaining %≤ 100%) | A (0% ≤ substrate protein remaining % ≤ 80%) | B (80%< substrate protein remaining %≤ 100%) | A (0% ≤ substrate protein remaining % ≤ 80%) | A (0% ≤ substrate protein remaining % ≤ 80%) | A (0% ≤ substrate protein remaining % ≤ 80%)
O=C1CCN(N2Cc3cc(CN4CC5CCC4CN5c4cccc(Cl)c4Cl)ccc3C2=O)C(=O)N1 (stereo not drawn) [GT-07428, 1-(5-((5-(2,3-dichlorophenyl)-2,5-diazabicyclo[2.2.2]octan-2-yl)methyl)-1-oxoisoindolin-2-yl)dihydropyrimidine-2,4(1H,3H)-dione] | B (80%< substrate protein remaining %≤ 100%) | A (0% ≤ substrate protein remaining % ≤ 80%) | B (80%< substrate protein remaining %≤ 100%) | B (80%< substrate protein remaining %≤ 100%) | A (0% ≤ substrate protein remaining % ≤ 80%) | A (0% ≤ substrate protein remaining % ≤ 80%)
O=C1CCN(N2Cc3cc(CN4CC5CCC(C4)N5c4cccc(Cl)c4Cl)ccc3C2=O)C(=O)N1 [GT-07429, 1-(5-((8-(2,3-dichlorophenyl)-3,8-diazabicyclo[3.2.1]octan-3-yl)methyl)-1-oxoisoindolin-2-yl)dihydropyrimidine-2,4(1H,3H)-dione] | B (80%< substrate protein remaining %≤ 100%) | B (80%< substrate protein remaining %≤ 100%) | B (80%< substrate protein remaining %≤ 100%) | B (80%< substrate protein remaining %≤ 100%) | A (0% ≤ substrate protein remaining % ≤ 80%) | B (80%< substrate protein remaining %≤ 100%)
O=C1CCN(N2Cc3cc(CN4C5CCC4CN(c4cccc(Cl)c4Cl)C5)ccc3C2=O)C(=O)N1 [GT-07430, 1-(5-((3-(2,3-dichlorophenyl)-3,8-diazabicyclo[3.2.1]octan-8-yl)methyl)-1-oxoisoindolin-2-yl)dihydropyrimidine-2,4(1H,3H)-dione] | B (80%< substrate protein remaining %≤ 100%) | A (0% ≤ substrate protein remaining % ≤ 80%) | B (80%< substrate protein remaining %≤ 100%) | B (80%< substrate protein remaining %≤ 100%) | A (0% ≤ substrate protein remaining % ≤ 80%) | A (0% ≤ substrate protein remaining % ≤ 80%)
O=C1CCN(N2Cc3cc(CN4CCCN(c5cccc(Cl)c5Cl)CC4)ccc3C2=O)C(=O)N1 [GT-07431, 1-(5-((4-(2,3-dichlorophenyl)-1,4-diazepan-1-yl)methyl)-1-oxoisoindolin-2-yl)dihydropyrimidine-2,4(1H,3H)-dione] | B (80%< substrate protein remaining %≤ 100%) | B (80%< substrate protein remaining %≤ 100%) | B (80%< substrate protein remaining %≤ 100%) | B (80%< substrate protein remaining %≤ 100%) | A (0% ≤ substrate protein remaining % ≤ 80%) | A (0% ≤ substrate protein remaining % ≤ 80%)
